Target: T1, mGlyT-1b (Mus musculus, UniProt P28571)
T1 construct: host or cells: Flp-in-CHO
T1 sequence (P28571 1-651 isoform P28571-2): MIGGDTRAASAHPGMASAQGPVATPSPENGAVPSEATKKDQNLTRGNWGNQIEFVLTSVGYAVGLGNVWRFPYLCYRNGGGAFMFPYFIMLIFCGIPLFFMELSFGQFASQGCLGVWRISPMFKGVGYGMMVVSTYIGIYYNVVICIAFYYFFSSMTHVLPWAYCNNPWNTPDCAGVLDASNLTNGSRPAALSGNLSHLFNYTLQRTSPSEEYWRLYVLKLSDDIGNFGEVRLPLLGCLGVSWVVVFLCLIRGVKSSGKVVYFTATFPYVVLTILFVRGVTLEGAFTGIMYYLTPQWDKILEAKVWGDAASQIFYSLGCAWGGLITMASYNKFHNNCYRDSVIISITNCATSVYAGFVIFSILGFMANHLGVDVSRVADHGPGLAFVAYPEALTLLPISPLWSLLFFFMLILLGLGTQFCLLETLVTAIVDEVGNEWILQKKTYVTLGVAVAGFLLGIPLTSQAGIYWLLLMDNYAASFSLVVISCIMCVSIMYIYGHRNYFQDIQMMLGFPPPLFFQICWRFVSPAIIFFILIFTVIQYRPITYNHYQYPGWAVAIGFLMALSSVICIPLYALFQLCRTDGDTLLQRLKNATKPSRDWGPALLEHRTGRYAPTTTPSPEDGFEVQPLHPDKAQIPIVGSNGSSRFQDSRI
Experiment: Glycine uptake inhibition assay (mGlyT-1b), [3H]-glycine uptake in Flp-in-CHO cells
Format: cell-based
Conditions: Flp-in-CHO cells stably transfected with mGlyT1b cDNA, 20 min at 22° C. preincubation
Procedure: Nutrient mixture F-12 (Gibco Life-technologies), fetal bovine serum (FBS) 5%, (Gibco life technologies), Penicillin/Streptomycin 1% (Gibco life technologies), Hygromycin 0.6 mg/ml (Gibco life technologies), Glutamine 1 mM Gibco life technologies) • Uptake buffer (UB): 150 mM NaCl, 10 mM Hepes-Tris, pH 7.4, […], 2.5 mM KCl, 2.5 mM MgSO4, 10 mM (+) D-glucose. • Flp-in™-CHO (Invitrogen Cat n° R758-07) cells stably transfected with mGlyT1b cDNA. Glycine Uptake Inhibition Assay (mGlyT-1b)
On day 1 mammalian cells, (Flp-in™-CHO), transfected with mGlyT-1b cDNA, were plated at the density of 40,000 cells/well in complete F-12 medium, without hygromycin in 96-well culture plates. On day 2, the medium was aspirated and the cells were washed twice with uptake buffer (UB). The cells were then incubated for 20 min at 22° C. with either (i) no potential competitor, (ii) 10 mM non-radioactive glycine, (iii) a concentration of a potential inhibitor. A range of concentrations of the potential inhibitor was used to generate data for calculating the concentration of inhibitor resulting in 50% of the effect (e.g. IC50, the concentration of the competitor inhibiting glycine uptake of 50%). A solution was then immediately added containing [^3H]-glycine 60 nM (11-16 Ci/mmol) and 25 μM non-radioactive glycine. The plates were incubated with gentle shaking and the reaction was stopped by aspiration of the mixture and washing (three times) with ice-cold UB. The cells were lysed with scintillation liquid, shaken 3 hours and the radioactivity in the cells was counted using a scintillation counter.

IC50 | SMILES
0.0275 µM | CSc1cc(C(F)(F)F)ccc1C(=O)NC(c1ccccc1)C1(N2CCCCC2)CCC1 (stereo not drawn) [Example 48, 2-Methylsulfanyl-N-[phenyl-(1-piperidin-1-yl-cyclobutyl)-methyl]-4-trifluoromethyl-benzamide]
0.0455 µM | COc1cc(C(F)(F)F)cc(C(F)(F)F)c1C(=O)NC(c1ccccc1)C1(N2CCCC2)CCC1 (stereo not drawn) [Example 14, 2-Methoxy-N-[phenyl-(1-pyrrolidin-1-yl-cyclobutyl)-methyl]-4,6-bis-trifluoromethyl-benzamide]
0.047 µM | CSc1cc(C(F)(F)F)cc(C(F)(F)F)c1C(=O)NC(c1ccccc1)C1(N2CCCC2)CCC1 (single isomer, unassigned; (+)) [Example 30, (+)-2-Methylsulfanyl-N-[phenyl-(1-pyrrolidin-1-yl-cyclobutyl)-methyl]-4,6-bis-trifluoromethyl-benzamide]
0.0225 µM | COc1cc(C(F)(F)F)cc(SC)c1C(=O)NC(c1ccccc1)C1(N2CCCC2)CCC1 (single isomer, unassigned; (+)) [Example 32, (+)-2-Methoxy-6-methylsulfanyl-N-[phenyl-(1-pyrrolidin-1-yl-cyclobutyl)-methyl]-4-trifluoromethyl-benzamide]
0.02 µM | CSc1cc(C(F)(F)F)ccc1C(=O)NC(c1ccc(F)cc1)C1(N2CCCC2)CCC1 (stereo not drawn) [Example 24, N-[(4-Fluoro-phenyl)-(1-pyrrolidin-1-yl-cyclobutyl)-methyl]-2-methylsulfanyl-4-trifluoromethyl-benzamide]
0.0308 µM | COc1cc(C(F)(F)F)cc(SC)c1C(=O)NC(c1ccccc1)C1(N2CCN(C3CC3)CC2)CCC1 (stereo not drawn) [Example 73, N-{[1-(4-Cyclopropyl-piperazin-1-yl)-cyclobutyl]-phenyl-methyl}-2-methoxy-6-methylsulfanyl-4-trifluoromethyl-benzamide]
0.0141 µM | COc1cc(C(F)(F)F)cc(SC)c1C(=O)NC(c1cc(F)cc(F)c1)C1(N2CCCC2)CCC1 (stereo not drawn) [Example 53]
0.0135 µM | COc1cc(C(F)(F)F)cc(SC)c1C(=O)NC(c1cccc(F)c1)C1(N2CCCC2)CCC1 (stereo not drawn) [Example 56, N-[(3-Fluoro-phenyl)-(1-pyrrolidin-1-yl-cyclobutyl)-methyl]-2-methoxy-6-methylsulfanyl-4-trifluoromethyl-benzamide]
0.0134 µM | CSc1cc(C(F)(F)F)ccc1C(=O)NC(c1ccccc1)C1(N2CCCC2)CCC1 (stereo not drawn) [Example 16, 2-Methylsulfanyl-N-[phenyl-(1-pyrrolidin-1-yl-cyclobutyl)-methyl]-4-trifluoromethyl-benzamide]
0.0398 µM | CCc1cc(C(F)(F)F)cc(C(F)(F)F)c1C(=O)NC(c1ccccc1)C1(N2CCCC2)CCC1 (stereo not drawn) [Example 37]
0.0312 µM | O=C(NC(c1ccccc1)C1(N2CCCC2)CCC1)c1ccc(C(F)(F)F)cc1C(F)(F)F (stereo not drawn) [Example 15, N-[Phenyl-(1-pyrrolidin-1-yl-cyclobutyl)-methyl]-2,4-bis-trifluoromethyl-benzamide]
0.0322 µM | CSc1cc(C(F)(F)F)ccc1C(=O)NC(c1cc(F)cc(F)c1)C1(N2CCCC2)CCC1 (stereo not drawn) [Example 40, N-[(3,5-Difluoro-phenyl)-(1-pyrrolidin-1-yl-cyclobutyl)-methyl]-2-methylsulfanyl-4-trifluoromethyl-benzamide]
0.0101 µM | CSc1cc(C(F)(F)F)ccc1C(=O)NC(c1ccccc1)C1(N2CC3(COC3)C2)CCC1 (stereo not drawn) [Example 74, 2-Methylsulfanyl-N-{[1-(2-oxa-6-aza-spiro[3.3]hept-6-yl)-cyclobutyl]-phenyl-methyl}-4-trifluoromethyl-benzamide]
0.0091 µM | CCc1cc(C(F)(F)F)ccc1C(=O)NC(c1ccccc1)C1(N2CCCC2)CCC1 (stereo not drawn) [Example 68, 2-Ethyl-N-[phenyl-(1-pyrrolidin-1-yl-cyclobutyl)-methyl]-4-trifluoromethyl-benzamide]

SMILES | IC50
O=C(NC(c1ccccc1)C1(N2CCCC2)CCC1)c1ccc(Cl)cc1Cl (stereo not drawn) [Example 43, 2,4-Dichloro-N-[phenyl-(1-pyrrolidin-1-yl-cyclobutyl)-methyl]-benzamide] | 0.0669 µM

Source: patent US8063098B2, “GlyT1 receptor antagonists” (Hoffmann-La Roche Inc., priority 2008, dated 2011)
